Laboratory results as given in paper PMC8658016, “Identification of New Compounds with Anticonvulsant and Antinociceptive Properties in a Group of 3-substituted (2,5-dioxo-pyrrolidin-1-yl)(phenyl)-Acetamides” (International Journal of Molecular Sciences, 2021).
Read-outs that look alike come from different tables or passages of the source.

Legend:
mice [1] = test: Formalin test (tonic pain); type: in vivo; details: Mus musculus, ip, mice i.p.
Description: The formalin test is a commonly used model of pain also useful in screening the analgesic activity of novel compounds. A subcutaneous formalin injection results in a biphasic nociceptive response; a phase one (5 min) followed by a quiescent period (10 min) and then phase two (15 min). C-fibers’ initial and direct stimulation in phase one led to peripheral inflammation accompanied by ongoing peripheral nerve activity and central sensitization during phase two. Moreover, a formalin injection induces persistent changes similar to those observed in nerve injury and subsequent neuropathic pain [27].
The experiments were conducted on adult male Albino Swiss mice (CD-1, 18–25 g) and male Wistar rats (Krf:(WI) WU), 180–250 g) as described previously. The minimum number of animals used needed to obtain definite and normally distributed results with the utilized test. Behavioral measures were scored by trained observers, which were blind to experimental conditions. […]
Data were presented as means ± standard error of the mean (S.E.M). […] Statistically significant differences between groups were calculated using one-way analysis of variance (ANOVA) and the post hoc Dunnett’s multiple comparison test or two-way analysis of variance (ANOVA) and the post hoc Tukey’s comparison when appropriate. […]

mice [2] = test: Oxaliplatin-induced peripheral neuropathy, tactile allodynia (von Frey); type: in vivo, mouse; details: for pain sensitivity threshold (von Frey), early phase / pain threshold as % of the baseline value, early phase: 3 h after oxaliplatin; for pain threshold (von Frey), late phase / pain threshold as % of the baseline value, late phase: 7 days after oxaliplatin
Source text: To investigate the analgesic activity of compound 14 in neuropathic pain, we used the OXPT-induced peripheral neuropathy model. OXPT directly affects neurons, which results in the upregulation of TRPM8 and TRPA1 and the downregulation of Kv4.3 neuronal channels. Moreover, OXPT forms adduct with mitochondrial DNA and, in this way, change the expression of membrane-associated protein such as channels. All these effects finally lead to peripheral and central sensitization. The neuropathy manifests as the decrease in the pain threshold and can be observed in hours or in days after OXPT administration, which is called the early or late phase of neuropathic pain, respectively. We tested the influence of compound 14 on tactile allodynia using the von Frey method 3 h and 7 days after the induction of neuropathy. In the early phase, we observed a significant decrease in the value of mean force that caused a paw withdrawal reaction (1.84 ± 0.05 g) (60.9% of the baseline) compared to non-treated animals (3.02 ± 0.07 g) (the baseline). In the late phase, the pain threshold was 1.97 ± 0.07 (65.2% of the baseline). The observed tactile allodynia was attenuated by compound 14, which elevated the pain sensitivity threshold in the early phase in a dose-dependent manner. (Figure 7) (2.61 ± 0.08 g, 2.94 ± 0.04 g, and 3.05 ± 0.08 g at the dose of 40 mg/kg, 60 mg/kg, and 80 mg/kg, respectively, which corresponded to 86.4%, 97.3%, and 100.9% of the baseline value). In the late phase, the pain threshold values were 2.45 ± 0.06 g, 2.88 ± 0.04 g, and 2.98 ± 0.06 g, which corresponded to 81.1%, 95.3%, and 98.6% of the baseline value.
The experiments were conducted on adult male Albino Swiss mice (CD-1, 18–25 g) and male Wistar rats (Krf:(WI) WU), 180–250 g) as described previously. The minimum number of animals used needed to obtain definite and normally distributed results with the utilized test. Behavioral measures were scored by trained observers, which were blind to experimental conditions. The following devices were used in the experiments: Analgesy Meter (37215, Ugo Basile), Plantar Test Apparatus (EFV5, Commat Ltd., Turkey), Plethysmometer (Plethysmometer 7140, Ugo Basile), Electronic von Frey unit (BIOSEB, France). All procedures were performed according to the European Union Directive of 22 September 2010 (2010/63/EU) and approved by the Local Ethics Committee for Experiments on Animals in Krakow, Poland (resolution no. 105/2016).
Figure 7 Antiallodynic effects of compound 14 in the tactile allodynia evaluated in the von Frey test in oxaliplatin-induced peripheral neuropathy. Statistical analysis: repeated measures analysis of variance (ANOVA), followed by Dunnett’s post hoc comparison: *** p < 0.001, **** p < 0.0001 (GraphPad Prism 8.0.1). Results obtained before the treatment with oxaliplatin (the gray bar) and after the treatment with oxaliplatin and the compound (post compound 14, the red bars) were compared to the results obtained after the treatment with oxaliplatin and before the administration of the compound (pre compound 14; the white bars).

SH-SY5Y viability (MTS) = type: cell-based; details: human, neuroblastoma SH-SY5Y cells
mice [3] = test: Grip strength test (neuromuscular strength); type: in vivo, mouse; details: 30 min
Description: Figure 3 Acute effect of compound 14 on the neuromuscular strength in mice. Compound 14 was administered i.p. 30 min before the test. Control animals received vehicle only. Each experimental group consisted of 10 animals. Each bar represents the mean + S.E.M. grip strengths in Newtons per gram of mouse body weight (N/g). * p < 0.05 vs. the control group (one-way ANOVA, followed by Dunnett’s post hoc test, GraphPad Prism 8.0.1).
In this study, we used adult male Swiss albino mice (Kołacz, Laboratory Animals Breeding, Warszawa, Poland) license no. 106/2019 (Local Ethical Committee in Lublin). In studies assessing the acute effect of compound 14 on neuromuscular strength, body temperature, and seizure threshold, compound 14 was suspended in a 1% solution of Tween 80 and administered i.p., 30 min before the tests.
The acute effect of compound 14 on neuromuscular strength was quantified using the grip-strength apparatus (BIOSEB, Chaville, France) according to the method described elsewhere.

[4] = test system: Cav1.2 channel (dihydropyridine site, antagonist radioligand); test: Radioligand binding, Cav1.2 channel (dihydropyridine site); details: rat cerebral cortex

## CN(C)C1CC(=O)N(C(C(=O)N2CCN(c3cccc(C(F)(F)F)c3)CC2)c2ccccc2)C1=O.Cl (centres unmarked) [Compound 14, 3-(Dimethylamino)-1-(2-oxo-1-phenyl-2-(4-(3-(trifluoromethyl)phenyl)-piperazin-1-yl)ethyl)pyrrolidine-2,5-dione hydrochloride]
Mice [1]; 0–5 min after formalin, read-out: ED50 formalin test, phase I
  ED50: 85.1 mg/kg
Mice [1]; 15–30 min after formalin, read-out: ED50 formalin test, phase II
  ED50: 56.1 mg/kg
Mice [2]; 40 mg/kg
  pain sensitivity threshold (von Frey), early phase: 2.61 ± 0.08 g
  pain threshold as % of the baseline value, early phase: 86.4%
  pain threshold (von Frey), late phase: 2.45 ± 0.06 g
  pain threshold as % of the baseline value, late phase: 81.1%
Mice [2]; 60 mg/kg
  pain sensitivity threshold (von Frey), early phase: 2.94 ± 0.04 g
  pain threshold as % of the baseline value, early phase: 97.3%
  pain threshold (von Frey), late phase: 2.88 ± 0.04 g
  pain threshold as % of the baseline value, late phase: 95.3%
Mice [2]; 80 mg/kg
  pain sensitivity threshold (von Frey), early phase: 3.05 ± 0.08 g
  pain threshold as % of the baseline value, early phase: 100.9%
  pain threshold (von Frey), late phase: 2.98 ± 0.06 g
  pain threshold as % of the baseline value, late phase: 98.6%
SH-SY5Y viability (MTS); 0.001 µM, read-out: SH-SY5Y cell viability, % of the control
  viability at 72 h, 0.001 µM: ≤ 120%
SH-SY5Y viability (MTS); 10 µM, read-out: SH-SY5Y cell viability, % of control
  viability at 72 h, 10 µM: 140%
Mice [3]; 30 mg/kg i.p.
  effect on neuromuscular strength (grip strength): did not significantly affect
Mice [3]; 60 mg/kg i.p., p < 0.05 (Dunnett)
  effect on grip strength: significantly decreased
[4]; 10 µM
  % Inhibition of Control-Specific Binding, Cav1.2 channel (dihydropyridine site, antagonist radioligand): 6.0%
[4]; 50 µM
  % Inhibition of Control-Specific Binding, Cav1.2 channel (dihydropyridine site, antagonist radioligand): 75.4%
